In ChEMBL document CHEMBL1201862, “PubChem BioAssay data set” (2004):
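48-hour exposure; five concentrations; linearly interpolated endpoints. Here, GI50 denotes the concentration required for 50% inhibition of growth.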 Activity calls are given as the source filed them. Rule as the data show it: active = GI50 up to about 1.1 µM and inactive = higher.

Assays:
Assay in all cases: inhibition of tumour cell growth, NCI panel, 48 h
OVCAR-4 = system: OVCAR-4
K562 = system: K562
SK-MEL-28 = system: SK-MEL-28
SK-OV-3 = system: SK-OV-3
SF-295 = system: SF-295
SNB-19 = system: SNB-19
SF-268 = system: SF-268
A549 = system: A549
NCI-H522 = system: NCI-H522
UACC-62 = system: UACC-62
KM12 = system: KM12
786-0 = system: 786-0
DLD-1 = system: DLD-1
HL-60 = system: HL-60
NCI-H226 = system: NCI-H226
MDA-N = system: MDA-N
MCF7 = system: MCF7
T47D = system: T47D
PC-3 = system: PC-3
DU-145 = system: DU-145

Measured: GI50

CCN(CC)CCC(=O)N1CCc2c([nH]c3ccccc23)C1c1cccnc1 (stereo unspecified)
inactive: OVCAR-4 > 100 µM | K562 > 100 µM | SK-MEL-28 > 100 µM | SK-OV-3 > 100 µM | SF-295 > 100 µM | SNB-19 > 100 µM | SF-268 > 100 µM | A549 > 100 µM | NCI-H522 > 100 µM | UACC-62 > 100 µM | KM12 > 100 µM | 786-0 > 100 µM | DLD-1 > 100 µM | HL-60 > 100 µM

CN(C)c1ccc(C2CC(=O)C(C#N)=C(c3ccccc3)NN2C)cc1 (stereo unspecified)
inactive: OVCAR-4 31.6 µM | NCI-H226 37.4 µM | SK-MEL-28 > 100 µM | SK-OV-3 12 µM | SF-295 4.2 µM | SNB-19 12.1 µM | SF-268 17.2 µM | A549 8.04 µM | NCI-H522 3.56 µM | KM12 6.04 µM | 786-0 8.73 µM | DLD-1 5.25 µM | HL-60 3.13 µM

CCn1c(C)nn2c(=O)c3ccccc3nc2c1=O
inactive: OVCAR-4 > 100 µM | K562 > 100 µM | SK-MEL-28 > 100 µM | SK-OV-3 > 100 µM | SF-295 > 100 µM | A549 > 100 µM | UACC-62 > 100 µM | KM12 > 100 µM | 786-0 > 100 µM | DLD-1 > 100 µM | HL-60 > 100 µM

N#Cc1ccccc1NC(=O)/C(=N\Nc1ccc([N+](=O)[O-])cc1)C1C(=O)NC(=O)NC1=O
inactive: OVCAR-4 > 100 µM | K562 > 100 µM | SK-MEL-28 > 100 µM | SK-OV-3 > 100 µM | SNB-19 > 100 µM | SF-268 > 100 µM | A549 > 100 µM | NCI-H522 92.3 µM | UACC-62 > 100 µM | KM12 > 100 µM | 786-0 > 100 µM | DLD-1 > 100 µM | HL-60 > 100 µM

C=CC[C@@]1(OC(C)=O)C(=O)C(=O)OC1C1COC(C)(C)O1 (stereo partly specified)
inactive: MDA-N 16.5 µM | MCF7 17.3 µM | OVCAR-4 18.6 µM | K562 15.3 µM | NCI-H226 35.3 µM | SK-MEL-28 18.8 µM | SK-OV-3 42.5 µM | T47D 16 µM | SF-295 32.4 µM | SNB-19 70.5 µM | SF-268 19.5 µM | A549 24.1 µM | PC-3 20.4 µM | NCI-H522 6.12 µM | DU-145 24.2 µM | UACC-62 16.5 µM | KM12 15.7 µM | 786-0 11.7 µM | HL-60 10.8 µM

Clc1ccc(/C(=C\c2ccccc2)Cn2ccnc2)cc1
inactive: MDA-N 14.9 µM | MCF7 16.1 µM | OVCAR-4 30.5 µM | K562 9.93 µM | NCI-H226 13.6 µM | SK-MEL-28 13.3 µM | SK-OV-3 16.5 µM | T47D 19.2 µM | SF-295 17.9 µM | SNB-19 21 µM | SF-268 4.25 µM | A549 18 µM | PC-3 11.5 µM | NCI-H522 8.15 µM | DU-145 20.1 µM | UACC-62 16.7 µM | KM12 4.93 µM | 786-0 17.4 µM | HL-60 14.1 µM

COc1ccc(/C=C(\C(C)=O)C(=O)Nc2ccccc2)cc1
inactive: OVCAR-4 > 100 µM | K562 > 100 µM | NCI-H226 > 100 µM | SK-MEL-28 > 100 µM | SK-OV-3 > 100 µM | SF-295 > 100 µM | SNB-19 > 100 µM | SF-268 > 100 µM | A549 > 100 µM | NCI-H522 > 100 µM | UACC-62 > 100 µM | KM12 > 100 µM | 786-0 > 100 µM | DLD-1 > 100 µM | HL-60 > 100 µM

CC1=NN(c2ccccc2)C(=O)C1/N=N/c1ccc(Br)cc1C (stereo unspecified)
inactive: OVCAR-4 62.7 µM | K562 > 100 µM | NCI-H226 35.9 µM | SK-MEL-28 > 100 µM | SK-OV-3 32.9 µM | SF-295 72.8 µM | SNB-19 85.9 µM | SF-268 > 100 µM | A549 40.5 µM | UACC-62 > 100 µM | KM12 > 100 µM | 786-0 82.2 µM | DLD-1 > 100 µM | HL-60 > 100 µM

Cn1cnc([N+](=O)[O-])c1[Se]c1nc(N)nc2c1ncn2C1OC(CO)C(O)C1O (stereo unspecified)
inactive: MDA-N > 100 µM | MCF7 > 100 µM | OVCAR-4 > 100 µM | K562 > 100 µM | NCI-H226 > 100 µM | SK-MEL-28 > 100 µM | SK-OV-3 > 100 µM | T47D > 100 µM | SF-295 > 100 µM | SNB-19 > 100 µM | SF-268 > 100 µM | A549 > 100 µM | PC-3 > 100 µM | NCI-H522 > 100 µM | DU-145 > 100 µM | UACC-62 > 100 µM | KM12 > 100 µM | 786-0 > 100 µM | HL-60 > 100 µM

COC(=O)c1ccccc1C1CN=NC12Cc1cc(C)cc(C)c1C2=O (stereo unspecified)
inactive: MDA-N 57 µM | MCF7 27.5 µM | OVCAR-4 65.3 µM | K562 40.5 µM | NCI-H226 99.3 µM | SK-MEL-28 > 100 µM | SK-OV-3 > 100 µM | T47D 44.7 µM | SF-295 48.6 µM | SNB-19 > 100 µM | SF-268 > 100 µM | A549 45.5 µM | PC-3 37.5 µM | NCI-H522 13.3 µM | DU-145 > 100 µM | UACC-62 75.5 µM | KM12 29.9 µM | 786-0 > 100 µM | HL-60 22 µM

CCN(CC)c1ccc(/N=N/c2ccc(-c3nc4ccc[n+](C)c4o3)cc2)cc1
inactive: OVCAR-4 12 µM | K562 2.4 µM | NCI-H226 11.5 µM | SK-OV-3 19.5 µM | SF-295 14.8 µM | SNB-19 13.3 µM | SF-268 12.6 µM | A549 9.77 µM | NCI-H522 4.93 µM | UACC-62 9.27 µM | KM12 11.1 µM | 786-0 11.4 µM | DLD-1 7.33 µM | HL-60 2.06 µM

CC1(C(=O)Nc2ccc3cc4ccccc4cc3c2)CC2(C)CC(C)(C1)C(O)NC2=O (stereo unspecified)
inactive: OVCAR-4 > 100 µM | K562 73.1 µM | NCI-H226 53.1 µM | SK-MEL-28 > 100 µM | SK-OV-3 > 100 µM | SF-295 66.5 µM | SF-268 > 100 µM | A549 98.4 µM | UACC-62 > 100 µM | KM12 > 100 µM | 786-0 > 100 µM | DLD-1 32.9 µM | HL-60 20.9 µM

O=[N+]([O-])c1ccc(Cl)c(C2CC(c3cccc4ccccc34)=Nc3ccccc3S2)c1 (stereo unspecified)
inactive: OVCAR-4 20.1 µM | K562 6.31 µM | NCI-H226 27.6 µM | SK-MEL-28 27.3 µM | SK-OV-3 > 84.7 µM | SF-295 23.9 µM | SNB-19 44.4 µM | SF-268 18.7 µM | A549 28.7 µM | NCI-H522 14.3 µM | UACC-62 15.4 µM | KM12 20.2 µM | 786-0 12.4 µM | DLD-1 13.2 µM | HL-60 5.21 µM

O=C(/C=C1\NC(=O)c2ccccc2N1)c1ccncc1
inactive: OVCAR-4 > 100 µM | K562 > 100 µM | NCI-H226 > 100 µM | SK-MEL-28 > 100 µM | SK-OV-3 > 100 µM | SF-295 > 100 µM | SNB-19 > 100 µM | SF-268 > 100 µM | A549 > 100 µM | NCI-H522 > 100 µM | UACC-62 > 100 µM | 786-0 > 100 µM | DLD-1 > 100 µM | HL-60 > 100 µM

CCOC(=O)Nc1ccc(S(=O)(=O)OC)cc1.CCOC(=O)Nc1ccc(S(=O)(=O)OC)cc1.NNC(=O)c1ccncc1
inactive: OVCAR-4 > 50 µM | K562 40.2 µM | NCI-H226 > 50 µM | SK-MEL-28 > 50 µM | SK-OV-3 > 50 µM | SF-295 > 50 µM | SNB-19 > 50 µM | SF-268 > 50 µM | A549 > 50 µM | UACC-62 > 50 µM | KM12 > 50 µM | 786-0 > 50 µM | DLD-1 9.04 µM | HL-60 > 50 µM

COC(=O)CC(C(C(=O)OC)C(=O)OC)N1C(=O)OCC1c1ccccc1 (stereo unspecified)
inactive: OVCAR-4 > 100 µM | K562 > 100 µM | NCI-H226 > 100 µM | SK-MEL-28 > 100 µM | SK-OV-3 > 100 µM | SF-295 > 100 µM | SNB-19 > 100 µM | SF-268 > 100 µM | A549 > 100 µM | NCI-H522 > 100 µM | UACC-62 > 100 µM | KM12 > 100 µM | 786-0 > 100 µM | DLD-1 > 100 µM | HL-60 > 100 µM

COc1ccccc1/C=C1\CCC(CCN(C)C)(C2=CCCC2)C1=O (stereo unspecified)
inactive: OVCAR-4 17.7 µM | K562 11.1 µM | NCI-H226 19.5 µM | SK-MEL-28 17.7 µM | SF-295 17.3 µM | SNB-19 16.1 µM | SF-268 19.4 µM | A549 23.9 µM | NCI-H522 14.1 µM | UACC-62 11.2 µM | KM12 18.2 µM | 786-0 14.4 µM | DLD-1 16.8 µM | HL-60 21.6 µM

COc1ccc(C/C(=N/O)C(=O)NCCc2cc(Br)c(OCCCN(C)C)c(Br)c2)cc1Br [APLYSAMINE 2]
inactive: OVCAR-4 17 µM | SK-MEL-28 17.7 µM | SF-295 18.8 µM | SNB-19 16.3 µM | SF-268 18.5 µM | A549 20 µM | NCI-H522 16.4 µM | KM12 16.6 µM | 786-0 20 µM | DLD-1 7.8 µM | HL-60 12.3 µM
